Source: publication PMC7532004, “Site-specific effects of neurosteroids on GABAA receptor activation and desensitization” (eLife, 2020)

Tests used:
[1] = target: T1, α1(Q242L/N408A/Y411F)β3 GABAAR (UniProt P28472+P62813, N434A/Q268L/Y437F); test: Two-electrode voltage clamp in Xenopus laevis oocytes, intersubunit + α1 intrasubunit mutant; assay type: cell-based; design: expressed in transfected cells; host or cells: Xenopus laevis oocytes injected with cRNA; conditions: 3 μM 3α5αP, 1 mM GABA + 40 μM pentobarbital
Description: (§1) The wild-type and mutant α1β3 GABAAR were expressed in oocytes from the African clawed frog (Xenopus laevis). Frogs were purchased from Xenopus 1 (Dexter, MI), and housed and cared for in a Washington University Animal Care Facility under the supervision of the Washington University Division of Comparative Medicine. Harvesting of oocytes was conducted under the Guide for the Care and Use of Laboratory Animals as adopted and promulgated by the National Institutes of Health. The animal protocol (No. 20180191) was approved by the Animal Studies Committee of Washington University in St. Louis. The oocytes were injected with a total of 12 ng cRNA. The ratio of cRNAs was 5:1 ratio (α1:β3) to minimize the expression of β3 homomeric receptors. Following injection, the oocytes were incubated in ND96 (96 mM NaCl, 2 mM KCl, 1.8 mM CaCl2, 1 mM MgCl2, 5 mM HEPES; pH 7.4) with supplements (2.5 mM Na pyruvate, 100 U/ml penicillin, 100 μg/ml streptomycin and 50 μg/ml gentamycin) at 16°C for 2 days prior to conducting electrophysiological recordings. The electrophysiological recordings were conducted at room temperature using standard two-electrode voltage clamp. The oocytes were clamped at −60 mV. The chamber (RC-1Z, Warner Instruments, Hamden, CT) was perfused with ND96 at 5–8 ml/min. […] Current traces were analyzed with Clampfit (Molecular Devices). […]

[2] = target: T2, α1(Q242L)β3(Y284F) GABAAR (UniProt P28472+P62813, Q268L/Y309F); test: Two-electrode voltage clamp in Xenopus laevis oocytes, intersubunit + β3 intrasubunit mutant; assay type: cell-based; conditions: 3 μM 3α5αP, 1 mM GABA + 40 μM pentobarbital
T2 construct: expressed in transfected cells; host or cells: Xenopus laevis oocytes injected with cRNA
Description: as §1

[3] = target: T1, α1(Q242L/N408A/Y411F)β3 GABAAR; test: [3H]muscimol binding to HEK cell membranes, intersubunit + α1 intrasubunit site mutant; design: expressed in transfected cells; host or cells: HEK293S GnTI- (ATCC CRL-3022), transient; species or system rat α1, human β3; conditions: 3 nM [3H]muscimol, 100% means no effect
Description: The human α1 and β3 GABAAR subunits were subcloned into pcDNA3 for molecular manipulations and cRNA synthesis. Using QuikChange Site-Directed Mutagenesis Kit (Agilent Technologies, Santa Clara, CA), a FLAG tag was first added to the α1 subunit then an 8xHis tag was added to generate the following His-FLAG tag tandem ([…]), inserted between the fourth and fifth residues of the mature peptide. The α1 and β3 subunits were then transferred into the pcDNA4/TO and pcDNA5/TO vectors (Thermo Fisher Scientific), respectively, for tetracycline inducible expression. Transient expression was done using the GABAAR subunits rat α1FLAG ([Ueno et al., 1996]) and human β3 obtained from Geoffrey White (Neurogen, Branford, CT), each were subcloned into pcDNA3 for molecular manipulations and cRNA synthesis. […]
[^3H]muscimol-binding assays were performed using a previously described method ([Chen et al., 2019]). […] Time courses of neurosteroid [^3H]muscimol binding enhancement were examined by adding 10 µM of neurosteroids (3α5αP, 3β5αP) to membranes that had been fully equilibrated with 3 nM [^3H]muscimol for 1 hr on ice; binding was then measured as a function of time at 1, 3, 10, 30, 60 min. […] Radioactivity bound to the filters was measured by liquid scintillation spectrometry using Bio-Safe II (Research Products International, Mount Prospect, IL).

[4] = target: T3, α1(N408A/Y411F)β3(Y284F) GABAAR (UniProt P28472+P62813, N434A/Y309F/Y437F); test: Two-electrode voltage clamp in Xenopus laevis oocytes, both intrasubunit sites mutated; assay type: cell-based; conditions: 3 μM 3β5αP, 1 mM GABA + 25 μM pentobarbital
T3 construct: expressed in transfected cells; host or cells: Xenopus laevis oocytes injected with cRNA
Description: as §1

α1(N408A/Y411F)β3 GABAAR = test: Two-electrode voltage clamp in Xenopus laevis oocytes, N408A/Y411F mutant; assay type: cell-based; conditions: 3 μM 3β5αP, 1 mM GABA; α1(N408A/Y411F)β3 vs WT
Description: as §1

| SMILES | Effect on steady-state current [1] | Inhibition of steady-state current, effect of β3 intrasubunit site mutation [2] | Emax (% of control) of [3H]muscimol binding [3] | Enhancement of desensitization compared with single intrasubunit site mutants [4] | Prevention of 3β5αP-enhanced desensitization by mutation (α1(N408A/Y411F)β3 GABAAR) |
| --- | --- | --- | --- | --- | --- |
| CC(=O)[C@H]1CC[C@H]2[C@@H]3CC[C@H]4C[C@H](O)CC[C@]4(C)[C@H]3CC[C@]12C [3α5αP, allopregnanolone] | significantly inhibited | markedly reduced | **105.9 ± 7.3 % of control | – | – |
| CC(=O)[C@H]1CC[C@H]2[C@@H]3CC[C@H]4C[C@@H](O)CC[C@]4(C)[C@H]3CC[C@]12C [3β5αP, epi-allopregnanolone] | – | – | – | less NS-enhancement of desensitization | ~ 67% |
